In patent EP3818828A1 (priority 2019, dated 2021):
Like-named read-outs stand apart in the source and are kept apart here.

How the values were obtained:
Assay type in all cases: cell-based
Pyricularia grisea = experiment: microbe, parasite or virus in culture
F. graminearum = experiment: microbe, parasite or virus in culture
Fusarium graminearum = experiment: microbe, parasite or virus in culture
Phytophthora infestans [1] = conditions: Phytophthora infestas; 1 mg/mL
Phytophthora infestans [2] = experiment: microbe, parasite or virus in culture; conditions: 1 mg/mL
Sclerotinia sclerotiorum = experiment: Ex vivo mycelial growth inhibition, growth rate method; conditions: 1 mg/mL
Description: (§1) 3-(3',4'-methylenedioxy phenyl)-N-n-propyl acrylamide (at a purity of 99%), 3-(3',4'-methylenedioxy phenyl)-piperidine acrylate (at a purity of 99%), the control agents, 96.5% of chlorothalonil technical (non-systemic broad-spectrum fungicide), 97.2% of carbendazim technical (systemic broad-spectrum fungicide), 97.0% of procymidone technical (systemic fungicide), 96.0% of dimethomorphtechnical ((E,Z)-4-[3-(4-chlorphenyl)3-(3,4-dimethoxy phenyl)acryloyl]morpholine, systemic fungicide), 97.0% of azoxystrobin technical (systemic broad-spectrum fungicide).
(§2) The inhibition of samples for testing on the mycelial growth of plant pathogenic fungi for testing is determined with a growth rate method. 3-(3',4'-methylenedioxy phenyl)-N-n-propyl acrylamide, 3-(3',4'-methylenedioxy phenyl)-piperidine acrylate and five control agents are dissolved with dimethyl sulfoxide (DMSO), then formulated at 5-7 concentrations of different gradients for test following the trial test results, with the same concentration of DMSO as the control solvent, each treatment in triplicate. Fungal cakes with a diameter of 4 mm are taken from the edge of the colony, inoculated into the center of a PDA plate containing different agents of different concentrations and the DMSO control, with one piece of fungal cake inoculated in each plate (with a diameter of […]), and incubated in a constant temperature incubator at a temperature of 22±1.5°C. 7 days later (10-20 days may be needed for some pathogenic fungi), the diameter of the colony is measured with a cross over method according to the mycelial growth profile of the control pathogenic fungi, then the inhibition rate of mycelial growth is calculated.
(§3) The computational formula is as below: the inhibition rate of mycelial growth (%) = [(the diameter of the control colony - the diameter of the treated colony)/the diameter of the control colony] × 100.
(§4) The inhibition results of each agent at a concentration of 1 mg/mL on the mycelial growth of plant pathogenic fungi are shown in Tables 1 and 2.

Phytophthora capsici = experiment: as above; conditions: Phytophthora capsici; 1 mg/mL
Description: as §1, §2, §3, §4

Thanatephorus cucumeris = experiment: as above; conditions: 1 mg/mL
Description: as §1, §2, §3, §4

F. oxysporum f. sp. lini = experiment: as above; conditions: 1 mg/mL
Description: as §1, §2, §3, §4

[3] = system: F. oxysporum f. sp. vasinfectum; experiment: as above; conditions: 1 mg/mL
Description: as §1, §2, §3, §4

Pythium aphanidermatum = experiment: as above; conditions: 1 mg/mL
Description: as §1, §2, §3, §4

C. gossypii = experiment: as above; conditions: 1 mg/mL
Description: as §1, §2, §3, §4

Mycosphaerlla melonis = experiment: as above; conditions: 1 mg/mL
Description: as §1, §2, §3, §4

Rhizoctonia solani = experiment: as above; conditions: Rhizoctonia solani; 1 mg/mL
Description: as §1, §2, §3, §4

F. verticillioide = experiment: as above; conditions: 1 mg/mL
Description: as §1, §2, §3, §4

Botrytis cinerea = experiment: as above; conditions: 1 mg/mL
Description: as §1, §2, §3, §4

Exserohilum turcicum = experiment: as above; conditions: 1 mg/mL
Description: as §1, §2, §3, §4

Colletotrichum capsici = experiment: as above; conditions: 1 mg/mL
Description: as §1, §2, §3, §4

Coniella diplodiella = experiment: as above; conditions: 1 mg/mL
Description: as §1, §2, §3, §4

## COC(=O)Nc1nc2ccccc2[nH]1 [Carbendazim, carbendazim]
Pyricularia grisea; 1 mg/mL
  Average Diameter of the Colony: 0.00 cm
Pyricularia grisea; read-out: Inhibition Rate
  inhibition at 1000 µg/mL: 100%
F. graminearum; F. graminearum, 1 mg/mL
  Average Diameter of the Colony: 1.17 cm
F. graminearum; Fusarium graminearum, read-out: Inhibition Rate
  inhibition at 1000 µg/mL: 87%
Fusarium graminearum; 1 mg/mL
  Average Diameter of the Colony: 0.00 cm
Fusarium graminearum; read-out: Inhibition Rate
  inhibition at 1000 µg/mL: 100%
Phytophthora infestans [1]
  Average Diameter of the Colony: 0.00 cm
Phytophthora infestans [2]
  Average Diameter of the Colony: 6.80 cm
Sclerotinia sclerotiorum
  Average Diameter of the Colony: 0.00 cm
  inhibition at 1000 µg/mL: 100%
Phytophthora capsici
  Average Diameter of the Colony: 0.00 cm
  inhibition at 1000 µg/mL: 100%
Thanatephorus cucumeris
  Average Diameter of the Colony: 0.00 cm
  inhibition at 1000 µg/mL: 100%
F. oxysporum f. sp. lini
  Average Diameter of the Colony: 0.00 cm
F. oxysporum f. sp. lini; Fusarium oxysporum
  inhibition at 1000 µg/mL: 100%
[3]
  Average Diameter of the Colony: 0.00 cm
[3]; Fusarium oxysporum
  inhibition at 1000 µg/mL: 100%
Pythium aphanidermatum
  Average Diameter of the Colony: 0.00 cm
  inhibition at 1000 µg/mL: 100%
C. gossypii; C. gossypii
  Average Diameter of the Colony: 0.00 cm
C. gossypii; Colletotrichum gossypii, C. cossypii, read-out: Inhibition Rate
  inhibition at 1000 µg/mL: 100%
Mycosphaerlla melonis
  Average Diameter of the Colony: 0.00 cm
  inhibition at 1000 µg/mL: 100%
Rhizoctonia solani
  Average Diameter of the Colony: 0.00 cm
  inhibition at 1000 µg/mL: 100%
F. verticillioide
  Average Diameter of the Colony: 0.00 cm
  inhibition at 1000 µg/mL: 100%
Botrytis cinerea
  Average Diameter of the Colony: 0.00 cm
  inhibition at 1000 µg/mL: 100%
Exserohilum turcicum
  Average Diameter of the Colony: 9.00 cm
  inhibition at 1000 µg/mL: 0%
Colletotrichum capsici
  Average Diameter of the Colony: 0.00 cm
Colletotrichum capsici; Colletotrichum truncatum
  inhibition at 1000 µg/mL: 100%
Coniella diplodiella
  Average Diameter of the Colony: 0.00 cm
  inhibition at 1000 µg/mL: 100%
